The subject of series [1] is recombinant NL4-3 virus (nef section replaced with Renilla luciferase gene) in MT-2 cells. As to the kind of experiment: HIV cell culture assay (antiviral activity, luciferase readout). Type of series: cell-based. The settings on record: Renilla, NL43, MT-2 cells infected for 4-5 days with recombinant NL4-3 Renilla luciferase virus. The gist of the method:
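293T transfection → virus harvest at 2-3 d → titer in MT-2 by luciferase. MT-2 + virus + serial cpd dilutions, 4-5 d. Live-cell luciferase read; EC50 by median effect fit.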

A short description of series [2]: Compound cytotoxicity, XTT-based colorimetric assay. The series is classed as cell-based. The settings on record: human. The gist of the method: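 Uninfected MT2 cells, antiviral-assay protocol without virus; XTT colorimetric readout day 4; CC50 reported.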
Setting [3] is: uninfected MT2 cells, day 4, XTT, read-out: CC50.

Like-named read-outs stand apart in the source and are kept apart here.

Consider `COC[C@H]1CN(CCn2nc(NS(C)(=O)=O)c3c(Cl)ccc(-n4c([C@H](Cc5cc(F)cc(F)c5)NC(=O)Cn5nc(C(F)F)c6c5C(F)(F)[C@@H]5C[C@H]65)nc5nc(C6CCC(F)(F)CC6)ccc5c4=O)c32)CCO1` (atropisomer, axis not shown; (P)) [Example 356, N-[(1S)-1-[(3P)-3-(4-chloro-3-methanesulfonamido-1-{2-[(2R)-2-(methoxymethyl)morpholin-4-yl]ethyl}-1H-indazol-7-yl)-7-(4,4-difluorocyclohexyl)-4-oxo-3H,4H-pyrido[2,3-d]pyrimidin-2-yl]-2-(3,5-difluorophenyl)ethyl]-2-[(2S,4R)-9-(difluoromethyl)-5,5-difluoro-7,8-diazatricyclo[4.3.0.0^2,^4]nona-1(6),8-dien-7-yl]acetamide], for which the 50% effective concentration (EC50) in series [1] stood at 0.029 nM. For the same molecule, in series [2] (setting [3]), the CC50 at 4 days is > 50 nM.

`C[C@@H]1CN(CCn2nc(NS(C)(=O)=O)c3c(Cl)ccc(-n4c([C@H](Cc5cc(F)cc(F)c5)NC(=O)Cn5nc(C(F)F)c6c5C(F)(F)[C@@H]5C[C@H]65)nc5nc(C6CCC(F)(F)CC6)ccc5c4=O)c32)CCO1` (atropisomer, axis not shown; (P)) [Example 360]: the half-maximal effective concentration (EC50) in series [1] amounted to 0.01 nM. Also, the CC50 at 4 days in series [2] (setting [3]) is > 50 nM.

`CS(=O)(=O)Nc1nn(CCN2CCC(F)CC2)c2c(-n3c([C@H](Cc4cc(F)cc(F)c4)NC(=O)Cn4nc(C(F)F)c5c4C(F)(F)[C@@H]4C[C@H]54)nc4nc(C5CCC(F)(F)CC5)cc(C(F)F)c4c3=O)ccc(Cl)c12` (atropisomer, axis not shown; (P)) [Example 370, N-[(1S)-1-[(3P)-3-{4-chloro-1-[2-(4-fluoropiperidin-1-yl)ethyl]-3-methanesulfonamido-1H-indazol-7-yl}-7-(4,4-difluorocyclohexyl)-5-(difluoromethyl)-4-oxo-3H,4H-pyrido[2,3-d]pyrimidin-2-yl]-2-(3,5-difluorophenyl)ethyl]-2-[(2S,4R)-9-(difluoromethyl)-5,5-difluoro-7,8-diazatricyclo[4.3.0.0^2,^4]nona-1(6),8-dien-7-yl]acetamide]: the EC50 in series [1] amounted to 0.009 nM. The CC50 at 4 days in series [2] (setting [3]) is > 20 nM.

`CS(=O)(=O)Nc1nn(CCN2CCC(F)CC2)c2c(-n3c([C@H](Cc4cc(F)cc(F)c4)NC(=O)Cn4nc(C5CC5)c5c4C[C@@H]4C[C@H]54)nc4nc(C5CCC(F)(F)CC5)cc(C(F)F)c4c3=O)ccc(Cl)c12` (atropisomer, axis not shown; (P)) [Example 371, N-[(1S)-1-[(3P)-3-{4-chloro-1-[2-(4-fluoropiperidin-1-yl)ethyl]-3-methanesulfonamido-1H-indazol-7-yl}-7-(4,4-difluorocyclohexyl)-5-(difluoromethyl)-4-oxo-3H,4H-pyrido[2,3-d]pyrimidin-2-yl]-2-(3,5-difluorophenyl)ethyl]-2-[(2S,4S)-9-cyclopropyl-7,8-diazatricyclo[4.3.0.0^2,^4]nona-1(6),8-dien-7-yl]acetamide]: the EC50 in series [1] turned out to be 0.009 nM. For the same molecule, in series [2] (setting [3]), the cytotoxic concentration (CC50) at 4 days was > 20 nM.

Regarding `COCCCn1nc(NS(C)(=O)=O)c2c(Cl)ccc(-n3c([C@H](Cc4cc(F)cc(F)c4)NC(=O)Cn4nc(C(F)F)c5c4C(F)(F)[C@@H]4C[C@H]54)nc4nc(C5CCC(F)(F)CC5)cc(C5CC5)c4c3=O)c21` (atropisomer, axis not shown; (P)) [Example 375, N-[(1S)-1-[(3P)-3-[4-chloro-3-methanesulfonamido-1-(3-methoxypropyl)-1H-indazol-7-yl]-5-cyclopropyl-7-(4,4-difluorocyclohexyl)-4-oxo-3H,4H-pyrido[2,3-d]pyrimidin-2-yl]-2-(3,5-difluorophenyl)ethyl]-2-[(2S,4R)-9-(difluoromethyl)-5,5-difluoro-7,8-diazatricyclo[4.3.0.0^2,^4]nona-1(6),8-dien-7-yl]acetamide], the EC50 in series [1] amounted to 0.014 nM. In series [2] (setting [3]), the 50% cytotoxic concentration (CC50) at 4 days is > 20 nM.

For the molecule `COCCCn1nc(NS(C)(=O)=O)c2c(Cl)ccc(-n3c([C@H](Cc4cc(F)cc(F)c4)NC(=O)Cn4nc(C5CC5)c5c4C[C@@H]4C[C@H]54)nc4nc(C5CCC(F)(F)CC5)cc(C5CC5)c4c3=O)c21` (atropisomer, axis not shown; (P)) [Example 376, N-[(1S)-1-[(3P)-3-[4-chloro-3-methanesulfonamido-1-(3-methoxypropyl)-1H-indazol-7-yl]-5-cyclopropyl-7-(4,4-difluorocyclohexyl)-4-oxo-3H,4H-pyrido[2,3-d]pyrimidin-2-yl]-2-(3,5-difluorophenyl)ethyl]-2-[(2S,4S)-9-cyclopropyl-7,8-diazatricyclo[4.3.0.0^2,^4]nona-1(6),8-dien-7-yl]acetamide], the EC50 in series [1] was determined as 0.016 nM. Further, the CC50 at 4 days in series [2] (setting [3]) is > 20 nM.

For `CS(=O)(=O)Nc1nn(CCN2[C@@H]3CC[C@H]2COC3)c2c(-n3c([C@H](Cc4cc(F)cc(F)c4)NC(=O)Cn4nc(C5CC5)c5c4C[C@@H]4C[C@H]54)nc4nc(C5CCC(F)(F)CC5)ccc4c3=O)ccc(Cl)c12` (atropisomer, axis not shown; (P)) [Example 381, N-[(1S)-1-[(3P)-3-(4-chloro-3-methanesulfonamido-1-{2-[(1R,5S)-3-oxa-8-azabicyclo[3.2.1]octan-8-yl]ethyl}-1H-indazol-7-yl)-7-(4,4-difluorocyclohexyl)-4-oxo-3H,4H-pyrido[2,3-d]pyrimidin-2-yl]-2-(3,5-difluorophenyl)ethyl]-2-[(2S,4S)-9-cyclopropyl-7,8-diazatricyclo[4.3.0.0^2,^4]nona-1(6),8-dien-7-yl]acetamide], the half-maximal effective concentration (EC50) in series [1] was determined as 0.007 nM. The CC50 at 4 days in series [2] is > 20 nM.

As to `CS(=O)(=O)Nc1nn(CCN2CCN(S(C)(=O)=O)CC2)c2c(-n3c([C@H](Cc4cc(F)cc(F)c4)NC(=O)Cn4nc(C5CC5)c5c4C[C@@H]4C[C@H]54)nc4nc(C5CCC(F)(F)CC5)ccc4c3=O)ccc(Cl)c12` (atropisomer, axis not shown; (P)) [Example 382, N-[(1S)-1-[(3P)-3-{4-chloro-3-methanesulfonamido-1-[2-(4-methanesulfonylpiperazin-1-yl)ethyl]-1H-indazol-7-yl}-7-(4,4-difluorocyclohexyl)-4-oxo-3H,4H-pyrido[2,3-d]pyrimidin-2-yl]-2-(3,5-difluorophenyl)ethyl]-2-[(2S,4S)-9-cyclopropyl-7,8-diazatricyclo[4.3.0.0^2,^4]nona-1(6),8-dien-7-yl]acetamide], in series [1], the EC50 is 0.037 nM. Moreover, the cytotoxic concentration (CC50) at 4 days in series [2] (setting [3]) is > 20 nM.

Turning to `Cc1cc(C2CCC(F)(F)CC2)nc2nc([C@H](Cc3cc(F)cc(F)c3)NC(=O)Cn3nc(C4CC4)c4c3C[C@@H]3C[C@H]43)n(-c3ccc(Cl)c4c(NS(C)(=O)=O)nn(CC(=O)N5C[C@@H](C)O[C@@H](C)C5)c34)c(=O)c12` (atropisomer, axis not shown; (P)) [Example 384, N-[(1S)-1-[(3P)-3-(4-chloro-1-{2-[(2R,6S)-2,6-dimethylmorpholin-4-yl]-2-oxoethyl}-3-methanesulfonamido-1H-indazol-7-yl)-7-(4,4-difluorocyclohexyl)-5-methyl-4-oxo-3H,4H-pyrido[2,3-d]pyrimidin-2-yl]-2-(3,5-difluorophenyl)ethyl]-2-[(2S,4S)-9-cyclopropyl-7,8-diazatricyclo[4.3.0.0^2,^4]nona-1(6),8-dien-7-yl]acetamide], the EC50 in series [1] came to 0.025 nM. The CC50 at 4 days in series [2] (setting [3]) was > 20 nM.

On to `COCCN(CCOC)C(=O)Cn1nc(NS(C)(=O)=O)c2c(Cl)ccc(-n3c([C@H](Cc4cc(F)cc(F)c4)NC(=O)Cn4nc(C5CC5)c5c4C[C@@H]4C[C@H]54)nc4nc(C5CCC(F)(F)CC5)cc(C)c4c3=O)c21` (atropisomer, axis not shown; (P)) [Example 387, 2-[(6P)-4-chloro-7-{2-[(1S)-1-{2-[(2S,4S)-9-cyclopropyl-7,8-diazatricyclo[4.3.0.0^2,^4]nona-1(6),8-dien-7-yl]acetamido}-2-(3,5-difluorophenyl)ethyl]-7-(4,4-difluorocyclohexyl)-5-methyl-4-oxo-3H,4H-pyrido[2,3-d]pyrimidin-3-yl}-3-methanesulfonamido-1H-indazol-1-yl]-N,N-bis(2-methoxyethyl)acetamide], for which the 50% effective concentration (EC50) in series [1] is 0.039 nM. Moreover, the CC50 at 4 days in series [2] (setting [3]) was > 20 nM.

Turning to `Cc1cc(C2CCC(F)(F)CC2)nc2nc([C@H](Cc3cc(F)cc(F)c3)NC(=O)Cn3nc(C4CC4)c4c3C[C@@H]3C[C@H]43)n(-c3ccc(Cl)c4c(NS(C)(=O)=O)nn(CC(=O)NCCOC(C)C)c34)c(=O)c12` (atropisomer, axis not shown; (P)) [Example 393, N-[(1S)-1-[(3P)-3-[4-chloro-3-methanesulfonamido-1-({[2-(propan-2-yloxy)ethyl]carbamoyl}methyl)-1H-indazol-7-yl]-7-(4,4-difluorocyclohexyl)-5-methyl-4-oxo-3H,4H-pyrido[2,3-d]pyrimidin-2-yl]-2-(3,5-difluorophenyl)ethyl]-2-[(2S,4S)-9-cyclopropyl-7,8-diazatricyclo[4.3.0.0^2,^4]nona-1(6),8-dien-7-yl]acetamide], the half-maximal effective concentration (EC50) in series [1] was determined as 0.035 nM. Further, the CC50 at 4 days in series [2] (setting [3]) was > 20 nM.

Consider `CO[C@@H](C)CNC(=O)Cn1nc(NS(C)(=O)=O)c2c(Cl)ccc(-n3c([C@H](Cc4cc(F)cc(F)c4)NC(=O)Cn4nc(C5CC5)c5c4C[C@@H]4C[C@H]54)nc4nc(C5CCC(F)(F)CC5)cc(C)c4c3=O)c21` (atropisomer, axis not shown; (P)) [Example 395, N-[(1S)-1-[(3P)-3-[4-chloro-3-methanesulfonamido-1-({[(2S)-2-methoxypropyl]carbamoyl}methyl)-1H-indazol-7-yl]-7-(4,4-difluorocyclohexyl)-5-methyl-4-oxo-3H,4H-pyrido[2,3-d]pyrimidin-2-yl]-2-(3,5-difluorophenyl)ethyl]-2-[(2S,4S)-9-cyclopropyl-7,8-diazatricyclo[4.3.0.0^2,^4]nona-1(6),8-dien-7-yl]acetamide], for which the half-maximal effective concentration (EC50) in series [1] stood at 0.034 nM. In addition, in series [2] (setting [3]), the CC50 at 4 days is > 20 nM.
